From US3931198A, “2-Amino-5-spiro substituted oxazoline-4-one compounds” (Abbott Laboratories, priority 1973, dated 1976)

How the values were obtained:
[1] = LD50, lethal dosage at which 50 percent of the animals expire; conditions: mouse, in vivo, ip; mice, intraperitoneal injection unless otherwise indicated
Experimental: (§1) Table VI below details the activity of the various species of this series along with the dosages utilized expressed in mg/kg of body weight and the lethal dosage at which 50 percent of the animals expire (^LD 50) for each of the compounds. Unless otherwise indicated, the dosage and the ^LD 50 were administered by intraperitoneal injection. It is to be understood, of course, that the particular route of administration is not critical to the manifestation of biological effects.

[2] = system: central nervous system; experiment: CNS activity (depressant or stimulant) in test mice; type: in vivo; conditions: i.p.
Experimental: as §1

[3] = system: rats; experiment: Learning and retention (escape time, jump out test) after electroconvulsive shock on a modified Cook-Weidley apparatus; type: in vivo; conditions: for Mean Escape Time, Retention Trial: 1 hour after last acquisition trial
Experimental: In addition to the foregoing activity, the administration of some of these novel compounds to warm-blooded animals results in an increased rate of learning by the animal coupled with a prolonged period of retention of the learned behavior.
The behavioral effects resulting from the administration of these compounds to rats were evaluated on a modified Cook-Weidley apparatus (L. Cook and E. Weidley, Ann. N.Y. Acad. Sci., 66, 790, 1957). The apparatus consists of a chamber with a grid flooring and an escape platform outside the chamber. The electric shock to the grid floor was controlled by a rheostat mechanism and scrambler. Rats were divided into 2 groups for each test trial. One group was administered saline as the control and the other group the test compound about 1/2 hour prior to electroconvulsive shock. It is known that electroconvulsive shock induces a state of proactive amnesia or an impaired learning rate (Deutsch, J.A., 1962, Ann. Rev. Psychol., 24, 259). Then, 15 minutes after electroconvulsive shock, the rats were given 10 acquisition trials on the jump out test to measure learning rates. Each acquisition trial consisted of 15 seconds in the chamber without any stimulation followed by 10 seconds of buzzer stimulation and culminated by 5 seconds of buzzer-plus-shock stimulation. The time from entrance into the apparatus until the rat jumps out is recorded as the escape time. Retention of the learned behavioral pattern was tested by repeating the test one hour after the last acquisition trial. The test sequence for each trial was terminated upon successful completion of the task, e.g., jumping out of the chamber. EFFECT OF 2-AMINO-8-METHYL-1-OXA-3,8-DIAZASPIRO [4,5]DEC-2-EN-4-ONE INTRAPERITONEAL ADMINISTRATION Mean Escape Time -- Sec. Trial Test Cpd. -- 10 mg/kg Control ______________________________________ 1 29.8 ± 0.3 30.0 ± 0.0 2 29.5 ± 0.5 29.3 ± 0.8 3 13.8 ± 1.7 26.0 ± 2.4 4 12.0 ± 2.1 22.0 ± 3.6 5 7.0 ± 1.6 22.3 ± 3.8 6 7.8 ± 1.5 18.5 ± 1.9 7 6.5 ± 1.6 18.0 ± 2.3 8 7.0 ± 2.2 13.0 ± 2.9 9 10.8 ± 3.0 15.6 ± 2.1 10 9.0 ± 1.2 13.9 ± 1.7 Retention Trial -- 1 hour after last Acquisition Trial: 13.8 ± 1.4 15.8 ± 3.3 EFFECT OF 2-AMINO-7,7,9-TRIMETHYL-1-OXA-3-AZASPIRO [4,5]DEC-2-EN-4-ONE INTRAPERITONEAL ADMINISTRATION Mean Escape Time -- Sec. Trial Test Cpd. 20 mg/kg Control ______________________________________ 1 30.0 ± 0.0 30.0 ± 0.0 2 29.0 ± 0.4 29.5 ± 0.2 3 21.2 ± 3.0 19.7 ± 5.2 4 17.7 ± 5.4 20.2 ± 5.3 5 14.7 ± 1.8 18.0 ± 2.7 6 18.0 ± 3.9 18.5 ± 3.6 7 10.0 ± 2.1 20.2 ± 4.7 8 5.5 ± 1.8 16.5 ± 3.8 9 6.7 ± 2.5 18.7 ± 5.0 10 7.2 ± 2.8 13.7 ± 4.4 Retention Trial -- 1 hour after last Acquisition Trial: 8.0 ± 2.6 20.2 ± 3.3 EFFECT OF 2-AMINO-7,9-DIMETHYL-1-OXA-3-AZASPIRO [4,5]DEC-2-EN-4-ONE ORAL ADMINISTRATION Mean Escape Time -- Sec. Trial Test Cpd. -- 20 mg/kg Control ______________________________________ 1 30.0 ± 0.0 30.0 ± 0.0 2 29.2 ± 0.4 29.7 ± 0.2 3 20.0 ± 4.3 27.2 ± 1.8 4 7.5 ± 2.9 19.7 ± 2.4 5 4.7 ± 0.8 16.0 ± 3.2 6 7.2 ± 2.0 14.7 ± 3.6 7 8.0 ± 1.6 18.7 ± 4.5 8 10.5 ± 3.7 11.0 ± 2.6 9 7.0 ± 1.2 13.0 ± 3.2 10 7.5 ± 2.1 15.5 ± 4.1 Retention Trial -- 1 hour after last Acquisition Trial: 6.7 ± 1.4 15.7 ± 5.0 ______________________________________

NC1=NC(=O)C2(CCC3CCCCC3C2)O1 (stereo not drawn) [2'-amino-octahydrospiro[naphthalene-2(1H),5'-[2]oxazolin]-4'-one]
LD50 [1]: > 1000 mg/kg
Activity ([2]; dose 500 mg/kg): depressant

NC1=NC(=O)C2(CC3CCC2C3)O1 (stereo not drawn) [2'-aminospiro[norbornane-2,5'-[2]oxazolin]-4'-one]
LD50 [1]: > 1000 mg/kg
Activity ([2]; dose 500 mg/kg): depressant

NC1=NC(=O)C2(CCNCC2)O1 [2-amino-1-oxa-3,8-diazaspiro[4,5]dec-2-en-4-one]
LD50 [1]: > 1000 mg/kg
Activity ([2]; dose 50 mg/kg): depressant

NC1=NC(=O)C2(CCCC2)O1 [2-amino-1-oxa-3-azaspiro[4,4]non-2-en-4-one]
LD50 [1]: > 1000 mg/kg
Activity ([2]; dose 500 mg/kg): depressant

NC1=NC(=O)C2(CCCCC2)O1 [2-amino-1-oxa-3-azaspiro[4,5]dec-2-en-4-one]
LD50 [1]: > 1000 mg/kg
Activity ([2]; dose 200 mg/kg): depressant

NC1=NC(=O)C2(CCCCCC2)O1 [2-amino-1-oxa-3-azaspiro[4,6]undec-2-en-4-one]
LD50 [1]: > 1000 mg/kg
Activity ([2]; dose 500 mg/kg): depressant

NC1=NC(=O)C2(CCCCCCC2)O1 [2-amino-1-oxa-3-azaspiro[4,7]dodec-2-en-4-one]
LD50 [1]: > 1000 mg/kg
Activity ([2]; dose 500 mg/kg): depressant

CC1CC(C)(C)CC2(C1)OC(N)=NC2=O (stereo not drawn) [2-amino-7,7,9-trimethyl-1-oxa-3-azaspiro[4,5]dec-2-en-4-one]
LD50 [1]: > 750 mg/kg
Activity ([2]; dose 0.1 mg/kg): stimulant
Mean Escape Time, Retention Trial ([3]; intraperitoneal, 20 mg/kg): 8.0 ± 2.6 s
Mean Escape Time ([3]; intraperitoneal, 20 mg/kg, acquisition trial 1): 30.0 ± 0.0 s
Mean Escape Time ([3]; intraperitoneal, 20 mg/kg, acquisition trial 2): 29.0 ± 0.4 s
Mean Escape Time ([3]; intraperitoneal, 20 mg/kg, acquisition trial 3): 21.2 ± 3.0 s
Mean Escape Time ([3]; intraperitoneal, 20 mg/kg, acquisition trial 4): 17.7 ± 5.4 s
Mean Escape Time ([3]; intraperitoneal, 20 mg/kg, acquisition trial 5): 14.7 ± 1.8 s
Mean Escape Time ([3]; intraperitoneal, 20 mg/kg, acquisition trial 6): 18.0 ± 3.9 s
Mean Escape Time ([3]; intraperitoneal, 20 mg/kg, acquisition trial 7): 10.0 ± 2.1 s
Mean Escape Time ([3]; intraperitoneal, 20 mg/kg, acquisition trial 8): 5.5 ± 1.8 s
Mean Escape Time ([3]; intraperitoneal, 20 mg/kg, acquisition trial 9): 6.7 ± 2.5 s
Mean Escape Time ([3]; intraperitoneal, 20 mg/kg, acquisition trial 10): 7.2 ± 2.8 s

CC1CC2(CC(C)N1C)OC(N)=NC2=O (stereo not drawn) [2-amino-7,8,9-trimethyl-1-oxa-3,8-diazaspiro[4,5]-2-en-4-one]
LD50 [1]: > 500 mg/kg
Activity ([2]; dose 20 mg/kg): depressant

CC1CC2(CC(C)C1C)OC(N)=NC2=O (stereo not drawn) [2-amino-7,8,9-trimethyl-1-oxa-3-azaspiro[4,5]dec-2-en-4-one]
LD50 [1]: > 1000 mg/kg
Activity ([2]; dose 200 mg/kg): depressant

CC1CC(C)CC2(C1)OC(N)=NC2=O (stereo not drawn) [2-amino-7,9-dimethyl-1-oxa-3-aza-spiro[4,5]dec-2-en-4-one]
LD50 [1]: ~300 mg/kg
Activity ([2]; dose 1 mg/kg): stimulant
Mean Escape Time, Retention Trial ([3]; oral, 20 mg/kg): 6.7 ± 1.4 s
Mean Escape Time ([3]; oral, 20 mg/kg, acquisition trial 1): 30.0 ± 0.0 s
Mean Escape Time ([3]; oral, 20 mg/kg, acquisition trial 2): 29.2 ± 0.4 s
Mean Escape Time ([3]; oral, 20 mg/kg, acquisition trial 3): 20.0 ± 4.3 s
Mean Escape Time ([3]; oral, 20 mg/kg, acquisition trial 4): 7.5 ± 2.9 s
Mean Escape Time ([3]; oral, 20 mg/kg, acquisition trial 5): 4.7 ± 0.8 s
Mean Escape Time ([3]; oral, 20 mg/kg, acquisition trial 6): 7.2 ± 2.0 s
Mean Escape Time ([3]; oral, 20 mg/kg, acquisition trial 7): 8.0 ± 1.6 s
Mean Escape Time ([3]; oral, 20 mg/kg, acquisition trial 8): 10.5 ± 3.7 s
Mean Escape Time ([3]; oral, 20 mg/kg, acquisition trial 9): 7.0 ± 1.2 s
Mean Escape Time ([3]; oral, 20 mg/kg, acquisition trial 10): 7.5 ± 2.1 s

CC1CCCC2(C1)OC(N)=NC2=O (stereo not drawn) [2-amino-7-methyl-1-oxa-3-aza-spiro[4,5]dec-2-en-4-one]
LD50 [1]: ~750 mg/kg
Activity ([2]; dose 200 mg/kg): depressant

NC1=NC(=O)C2(CCN(Cc3ccccc3)CC2)O1 [2-amino-8-benzyl-1-oxa-3,8-diazaspiro[4,5]dec-2-en-4-one]
LD50 [1]: > 1000 mg/kg
Activity ([2]; dose 200 mg/kg): depressant

CC(C)N1CCC2(CC1)OC(N)=NC2=O [2-amino-8-isopropyl-1-oxa-3,8-diazaspiro-[4,5]dec-2-en-4-one]
LD50 [1]: 1000 mg/kg
Activity ([2]; dose 100 mg/kg): depressant

CC1CCC2(CC1)OC(N)=NC2=O (stereo not drawn) [2-amino-8-methyl-1-oxa-2-aza-spiro[4,5]dec-2-en-4-one]
LD50 [1]: > 1000 mg/kg
Activity ([2]; dose 500 mg/kg): depressant

CN1CCC2(CC1)OC(N)=NC2=O [2-amino-8-methyl-1-oxa-3,8-diazaspiro[4,5]dec-2-en-4-one]
LD50 [1]: > 1000 mg/kg
Activity ([2]; dose 10 mg/kg): stimulant
Mean Escape Time, Retention Trial ([3]; intraperitoneal, 10 mg/kg): 13.8 ± 1.4 s
Mean Escape Time ([3]; intraperitoneal, 10 mg/kg, acquisition trial 1): 29.8 ± 0.3 s
Mean Escape Time ([3]; intraperitoneal, 10 mg/kg, acquisition trial 2): 29.5 ± 0.5 s
Mean Escape Time ([3]; intraperitoneal, 10 mg/kg, acquisition trial 3): 13.8 ± 1.7 s
Mean Escape Time ([3]; intraperitoneal, 10 mg/kg, acquisition trial 4): 12.0 ± 2.1 s
Mean Escape Time ([3]; intraperitoneal, 10 mg/kg, acquisition trial 5): 7.0 ± 1.6 s
Mean Escape Time ([3]; intraperitoneal, 10 mg/kg, acquisition trial 6): 7.8 ± 1.5 s
Mean Escape Time ([3]; intraperitoneal, 10 mg/kg, acquisition trial 7): 6.5 ± 1.6 s
Mean Escape Time ([3]; intraperitoneal, 10 mg/kg, acquisition trial 8): 7.0 ± 2.2 s
Mean Escape Time ([3]; intraperitoneal, 10 mg/kg, acquisition trial 9): 10.8 ± 3.0 s
Mean Escape Time ([3]; intraperitoneal, 10 mg/kg, acquisition trial 10): 9.0 ± 1.2 s

NC1=NC(=O)C2(CCN(CCc3ccccc3)CC2)O1 [2-amino-8-phenethyl-1-oxa-3,8-diazaspiro-[4,5]dec-2-en-4-one]
LD50 [1]: > 1000 mg/kg
Activity ([2]; dose 200 mg/kg): depressant

NC1=NC(=O)C2(CCC2)O1 [6-amino-5-oxa-7-azaspiro[3,4]oct-6-en-8-one]
LD50 [1]: > 500 mg/kg
Activity ([2]; dose 200 mg/kg): depressant
